The supplement of paper PMC10307832

Assays:
Experiment in all cases: relative viability (nuclei count vs DMSO), 5 days (fraction); higher = more cells survive
[1] = compound: COc1cc2c(Oc3ccc4[nH]c(C)cc4c3F)ncnc2cc1OCCCN1CCCC1 [Cediranib] + Cc1cc(Nc2cc(N3CCN(C)CC3)nc(Sc3ccc(NC(=O)C4CC4)cc3)n2)n[nH]1 [Tozasertib] (partner 0.1 µM)
How it was run: (§1)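 Relative viability is defined as nuclei in treated wells over nuclei in vehicle wells. Duplicate plates were run and medians reported. Lung cancer cell lines in 1536-well plates were dosed by pin tool one day after seeding, with one drug or with a fixed anchor-drug dose plus five library-drug doses (not always all listed) in √10 steps, and nuclei were counted after 5 days.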

[2] = compound: COc1cc2c(Oc3ccc4[nH]c(C)cc4c3F)ncnc2cc1OCCCN1CCCC1 [Cediranib] + CC(=O)c1c(C)c2cnc(Nc3ccc(N4CCNCC4)cn3)nc2n(C2CCCC2)c1=O [Palbociclib] (partner 0.5 µM)
How it was run: as §1

[3] = compound: O=C(C[C@H]1NCCC[C@@H]1O)Cn1cnc2cc(Br)c(Cl)cc2c1=O (racemic) [Halofuginone] + N=C(N)NC(=N)NCCc1ccccc1 [Phenformin] (partner 250 µM)
How it was run: as §1

[4] = compound: Nc1ncn([C@H]2C[C@H](O)[C@@H](CO)O2)c(=O)n1 [Decitabine] + COc1cccc2cc(-c3nc([C@H]4CC[C@H](C(=O)O)CC4)n4ncnc(N)c34)[nH]c12 [OSI-027] (partner 0.5 µM)
How it was run: as §1

| Cell Line | relative viability ([1]; first compound 0.04 µM) | relative viability ([1]; first compound 0.1265 µM) | relative viability ([1]; first compound 0.4 µM) | relative viability ([1]; first compound 1.265 µM) | relative viability ([1]; first compound 4 µM) | relative viability ([2]; first compound 0.04 µM) | relative viability ([2]; first compound 0.1265 µM) | relative viability ([2]; first compound 0.4 µM) | relative viability ([2]; first compound 1.265 µM) | relative viability ([2]; first compound 4 µM) | relative viability ([3]; first compound 0.001 µM) | relative viability ([3]; first compound 0.003162 µM) | relative viability ([3]; first compound 0.01 µM) | relative viability ([3]; first compound 0.03162 µM) | relative viability ([3]; first compound 0.1 µM) | relative viability ([4]; first compound 0.04 µM) | relative viability ([4]; first compound 0.1265 µM) | relative viability ([4]; first compound 0.4 µM) | relative viability ([4]; first compound 1.265 µM) | relative viability ([4]; first compound 4 µM) |
| --- | --- | --- | --- | --- | --- | --- | --- | --- | --- | --- | --- | --- | --- | --- | --- | --- | --- | --- | --- | --- |
| NCI-H1944 | 0.255 | 0.264 | 0.244 | 0.24 | 0.266 | 0.331 | 0.386 | 0.315 | 0.346 | 0.313 | 0.179 | 0.225 | 0.208 | 0.218 | 0.172 | 0.372 | 0.424 | 0.353 | 0.329 | 0.354 |
| LK-2 | 0.195 | 0.156 | 0.175 | 0.194 | 0.162 | 0.998 | 0.693 | 0.687 | 0.764 | 0.724 | 0.627 | 0.598 | 0.404 | 0.372 | 0.221 | 0.188 | 0.2 | 0.191 | 0.252 | 0.212 |
| NCI-H441 | 0.787 |  | 0.545 | 0.55 | 0.677 | 0.202 | 0.258 | 0.22 | 0.205 | 0.275 | 0.976 | 1.05 | 0.87 | 0.839 | 0.564 | 0.415 | 0.441 | 0.246 | 0.261 | 0.255 |
| NCI-H23 | 0.43 |  | 0.365 | 0.399 | 0.395 | 0.585 | 0.601 | 0.547 | 0.429 | 0.56 | 0.774 | 0.762 | 0.757 | 0.806 | 0.669 | 0.48 | 0.498 | 0.255 | 0.231 | 0.245 |
| NCI-H647 | 0.306 | 0.225 | 0.3 | 0.227 | 0.255 | 0.349 | 0.385 | 0.336 | 0.457 | 0.448 | 0.659 | 0.642 | 0.544 | 0.368 | 0.195 | 0.648 | 0.549 | 0.403 | 0.152 | 0.201 |
| 201T | 1.1 | 1.19 | 0.875 | 0.966 | 0.889 | 0.368 | 0.429 | 0.352 | 0.372 | 0.341 | 0.459 | 0.472 | 0.442 | 0.457 | 0.348 | 0.72 | 0.681 | 0.62 | 0.464 | 0.403 |
| NCI-H1734 | 0.262 | 0.246 | 0.278 | 0.277 | 0.245 | 0.322 | 0.348 | 0.383 | 0.356 | 0.305 | 0.369 | 0.436 | 0.427 | 0.408 | 0.369 | 0.506 | 0.554 | 0.578 | 0.368 | 0.266 |
